Results: patent US20240139192A1, “METHODS AND COMPOSITIONS COMPRISING A BRAF INHIBITOR AND A MEK INHIBITOR” (Hoffmann-La Roche Inc., priority 2021, published 2024)

Experiments:
BRAF V600E = BRAF V600E (Homo sapiens, UniProt P15056, V600E); experiment: biochemical
[1] = system: P-ERK in A375 cells (V600E mutated BRAF); experiment: HTRF assay for P-ERK determination in A375 cells; type: cell-based; conditions: Homo sapiens, A-375; A375 cell line, 1 hour drug incubation; read-out: pERK IC50 A375
From the text: DMEM no-phenol red medium supplemented with L-glutamine was purchased from (Thermo Fisher Scientific). Fetal bovine serum (FBS) was purchased from VWR. […] 384-well microplates were purchased from Greiner Bio-One, 384-well, (With Lid, HiBase, Low volume cat 784-080).
ERK 1,2 phosphorylation (terminal member of the phosphorylation cascade of the MAPK pathway) is hereafter reported as main readout for the activation status of the MAPK pathway.
In order to allow proper data normalization control wells without drug treatment reported are always included in each plate (according to manufacturer's instruction):
The plate is then centrifuged at 300 rcf for 30 second, sealed to prevent evaporation and incubated overnight in the dark at room temperature.
The plate is then analyzed and fluorescence emission value collected through a Pherastast FSX (BMG Labtech) apparatus at […].
Data are normalized considering the average of the ratio (blank subtracted) derived by DMSO only treated cells as 100% and by considering the average of the ratio (blank subtracted) derived by 10 μM dabrafenib treated cells as 0%. Mean of the normalized points are fitted with sigmoidal curve and IC50 determined. […] Kd is the dissociation constant in the biochemical experiments.

CRAF = CRAF (Homo sapiens, UniProt P04049); experiment: biochemical
[2] = molecular target: C-terminal Src kinase (CSK) (Homo sapiens, UniProt P41240); experiment: biochemical
[3] = molecular target: lymphocyte-specific tyrosine protein kinase (LCK) (Homo sapiens, UniProt P06239); experiment: biochemical
BRAF = BRAF (Homo sapiens, UniProt P15056); experiment: biochemical
[4] = system: P-ERK in A375 NRAS Q61K cells; experiment: Western Blot analysis of phosphorylated ERK in A375 NRAS Q61K cells; type: cell-based; conditions: 1 h, alone or with 10 nM Cobimetinib, compared with Encorafenib or Encorafenib/Cobimetinib (FIG. 1)
Procedure: Cell lines were obtained from ATCC, maintained in humidified incubators at 5% CO2 in standard conditions and passaged twice a week.
The A375 cell line presenting BRAF V600E and the RAF dimer inducing mutation NRAS Q61K was utilized to model a mechanism of resistance to BRAFi and BRAFi/MEKi combinations.

C-terminal Src kinase (CSK), sequence (P41240 whole entry): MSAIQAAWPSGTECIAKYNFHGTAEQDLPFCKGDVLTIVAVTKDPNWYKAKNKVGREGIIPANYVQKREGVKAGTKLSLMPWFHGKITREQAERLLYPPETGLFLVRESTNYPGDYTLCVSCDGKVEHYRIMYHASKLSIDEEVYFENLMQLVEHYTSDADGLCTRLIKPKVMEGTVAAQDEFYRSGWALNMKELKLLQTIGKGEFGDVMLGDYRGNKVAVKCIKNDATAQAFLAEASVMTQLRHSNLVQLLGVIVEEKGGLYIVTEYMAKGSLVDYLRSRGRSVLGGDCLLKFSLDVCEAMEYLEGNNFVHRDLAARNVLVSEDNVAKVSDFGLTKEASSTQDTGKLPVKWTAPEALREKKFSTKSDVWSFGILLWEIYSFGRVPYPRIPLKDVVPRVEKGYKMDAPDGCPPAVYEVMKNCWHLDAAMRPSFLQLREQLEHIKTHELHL
BRAF, sequence (P15056 whole entry): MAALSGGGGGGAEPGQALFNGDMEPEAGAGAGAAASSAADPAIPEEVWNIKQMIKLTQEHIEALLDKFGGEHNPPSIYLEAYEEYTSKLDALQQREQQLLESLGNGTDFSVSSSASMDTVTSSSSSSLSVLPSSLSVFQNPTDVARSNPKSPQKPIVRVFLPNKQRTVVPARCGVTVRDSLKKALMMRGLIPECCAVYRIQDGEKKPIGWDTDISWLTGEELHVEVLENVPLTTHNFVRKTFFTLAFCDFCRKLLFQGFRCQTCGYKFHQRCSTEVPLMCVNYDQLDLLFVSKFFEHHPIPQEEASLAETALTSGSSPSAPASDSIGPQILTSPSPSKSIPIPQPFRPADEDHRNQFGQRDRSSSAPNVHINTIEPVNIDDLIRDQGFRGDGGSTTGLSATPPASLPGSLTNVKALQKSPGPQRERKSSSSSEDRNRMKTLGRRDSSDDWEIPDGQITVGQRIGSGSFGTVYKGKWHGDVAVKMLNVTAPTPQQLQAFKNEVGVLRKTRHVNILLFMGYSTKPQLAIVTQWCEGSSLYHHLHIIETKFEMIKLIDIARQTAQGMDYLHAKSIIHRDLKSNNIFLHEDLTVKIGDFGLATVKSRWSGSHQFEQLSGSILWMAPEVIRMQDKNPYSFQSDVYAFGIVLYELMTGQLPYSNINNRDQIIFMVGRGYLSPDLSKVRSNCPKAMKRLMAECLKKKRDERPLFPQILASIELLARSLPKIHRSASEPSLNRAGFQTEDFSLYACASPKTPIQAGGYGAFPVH
lymphocyte-specific tyrosine protein kinase (LCK), sequence (P06239 whole entry): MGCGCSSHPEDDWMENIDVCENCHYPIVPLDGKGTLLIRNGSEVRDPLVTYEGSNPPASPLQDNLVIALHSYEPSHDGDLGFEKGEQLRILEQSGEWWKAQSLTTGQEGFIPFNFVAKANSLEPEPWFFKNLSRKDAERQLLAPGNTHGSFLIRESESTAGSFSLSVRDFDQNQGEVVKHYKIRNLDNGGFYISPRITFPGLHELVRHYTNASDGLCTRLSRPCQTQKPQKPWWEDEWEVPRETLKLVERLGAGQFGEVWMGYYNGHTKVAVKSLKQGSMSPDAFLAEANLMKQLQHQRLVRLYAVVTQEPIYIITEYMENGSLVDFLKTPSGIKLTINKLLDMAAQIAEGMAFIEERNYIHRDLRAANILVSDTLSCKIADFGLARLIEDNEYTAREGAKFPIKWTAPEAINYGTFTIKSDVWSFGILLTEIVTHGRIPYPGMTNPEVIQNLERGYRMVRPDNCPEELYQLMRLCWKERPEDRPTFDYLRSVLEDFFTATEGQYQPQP
CRAF, sequence (P04049 whole entry): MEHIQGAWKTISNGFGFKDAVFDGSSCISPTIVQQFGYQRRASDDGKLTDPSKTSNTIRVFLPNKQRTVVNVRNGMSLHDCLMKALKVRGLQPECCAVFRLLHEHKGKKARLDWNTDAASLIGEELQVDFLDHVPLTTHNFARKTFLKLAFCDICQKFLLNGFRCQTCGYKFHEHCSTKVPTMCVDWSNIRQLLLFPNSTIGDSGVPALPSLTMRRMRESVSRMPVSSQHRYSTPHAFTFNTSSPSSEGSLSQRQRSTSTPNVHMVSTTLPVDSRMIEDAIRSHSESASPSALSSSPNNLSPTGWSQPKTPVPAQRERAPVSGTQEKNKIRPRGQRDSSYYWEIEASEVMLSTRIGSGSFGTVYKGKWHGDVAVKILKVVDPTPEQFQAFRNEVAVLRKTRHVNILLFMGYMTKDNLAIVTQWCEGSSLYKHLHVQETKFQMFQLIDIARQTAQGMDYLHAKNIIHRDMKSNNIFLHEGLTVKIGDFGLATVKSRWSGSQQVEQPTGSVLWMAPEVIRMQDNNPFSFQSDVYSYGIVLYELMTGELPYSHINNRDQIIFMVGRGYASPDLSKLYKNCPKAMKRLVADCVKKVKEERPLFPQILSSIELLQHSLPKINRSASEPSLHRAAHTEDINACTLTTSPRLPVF
BRAF V600E, sequence (P15056 whole entry V600E): as the sequence (P15056 whole entry) above, with V600E counted along it

SMILES: Cn1cnc2ccc(Oc3c(F)ccc(NS(=O)(=O)N4CC[C@H](F)C4)c3C#N)cc2c1=O [(Ib), (3S)-N-[2-cyano-4-fluoro-3-(3-methyl-4-oxo-quinazolin-6-yl)oxy-phenyl]-3-fluoro-pyrrolidine-1-sulfonamide]
- Kd (BRAF V600E): 0.9 nM
- IC50 [1]: 10.6 nM
- Kd (CRAF): 1.2 nM
- Kd [2]: 9160 nM
- Kd [3]: 20100 nM
- Kd (BRAF): 1.3 nM

SMILES: Cn1cnc2ccc(Oc3c(F)ccc(NS(=O)(=O)N4CC[C@@H](F)C4)c3C#N)cc2c1=O [(Ia), (3R)-N-[2-cyano-4-fluoro-3-(3-methyl-4-oxo-quinazolin-6-yl)oxy-phenyl]-3-fluoro-pyrrolidine-1-sulfonamide]
- Kd (BRAF V600E): 1.2 nM
- IC50 [1]: 6.9 nM
- Kd (CRAF): 1.7 nM
- P-ERK inhibition (Western Blot) [4]: superior P-ERK inhibition compared to Encorafenib
- Kd [2]: 23300 nM
- Kd [3]: 40000 nM
- Kd (BRAF): 0.6 nM
